Experimental data as given in patent US20090312280A1.

Assays:
HT29 (Colon) = experiment: cell survival / MTT combination cytotoxicity; assay type: cell-based, human; conditions: HT29; IC50 cytotoxic agent alone / IC50 combination; Compound 1 at 8x EC50 (360 nM)
Colo205 (Colon) = experiment: cell survival / MTT combination cytotoxicity; assay type: cell-based, human; conditions: Colo205; IC50 cytotoxic agent alone / IC50 combination; Compound 1 at 8x EC50 (360 nM)
PC-3 (Prostate) = experiment: cell survival / MTT combination cytotoxicity; assay type: cell-based, human; conditions: PC-3; IC50 cytotoxic agent alone / IC50 combination; Compound 1 at 8x EC50 (360 nM)
MDA-MB-231 (Breast) = experiment: cell survival / MTT combination cytotoxicity; assay type: cell-based, human; conditions: IC50 cytotoxic agent alone / IC50 combination, Compound 1 at 8x EC50 (360 nM)
K562 (Leukemia) = experiment: cell survival / MTT combination cytotoxicity; assay type: cell-based, human; conditions: IC50 cytotoxic agent alone / IC50 combination, Compound 1 at 4x EC50 (180 nM)
[1] = tested on: Colo205 human colon carcinoma xenografts; experiment: in vivo chemopotentiation, Colo205 xenograft; design: species or system mice
Procedure: Experiments 1 to 39 were conducted in mice xenografts. Experiments 40-42 were conducted in rat xenografts. Specifically, irinotecan combination studies were conducted in HT29 and Colo205. Gemcitabine combination studies were conducted in Colo205. Docetaxel combination studies were conducted in Colo205.
Gemcitabine and irinotecan are DNA directed cytotoxics known to induce checkpoint activation and subsequent S/G2M-phase arrest. […] Docetaxel is an antimitotics where recent discoveries describe a novel function for CHK1 in the mitotic checkpoint.

[2] = Exp 1, gemcitabine 120 mg/kg IP Q3d×4, Compound 1 0 mg/kg
[3] = Exp 2, gemcitabine 120 mg/kg IP Q3d×4 + Compound 1 4 mg/kg IP Q3d×4 24 h after
[4] = Exp 3, gemcitabine 120 mg/kg IP Q3d×4 + Compound 1 8 mg/kg IP Q3d×4 24 h after
[5] = Exp 4, gemcitabine 120 mg/kg IP Q3d×4 + Compound 1 12 mg/kg IP Q3d×4 24 h after
[6] = Exp 5, gemcitabine 120 mg/kg IP Q3d×4 + Compound 1 20 mg/kg IP Q3d×4 24 h after
[7] = Exp 6, gemcitabine 120 mg/kg IP Q3d×4 + Compound 1 24 mg/kg IP Q3d×4 24 h after
[8] = Exp 7, gemcitabine 120 mg/kg IP Q3d×4 + Compound 1 40 mg/kg IP Q3d×4 24 h after

## Nc1ccn([C@@H]2O[C@H](CO)[C@@H](O)C2(F)F)c(=O)n1 [Gemcitabine]
HT29 (Colon)
  PF50 (Potentiation Factor50): 9
Colo205 (Colon)
  PF50 (Potentiation Factor50): 11.3
PC-3 (Prostate)
  PF50 (Potentiation Factor50): 12.2
MDA-MB-231 (Breast)
  PF50 (Potentiation Factor50): 3.6
K562 (Leukemia)
  PF50 (Potentiation Factor50): 5.6
[1]; [2]
  % TGI: 58%
  Growth delay: 8 days
[1]; [3]
  % TGI: 58%
  Growth delay: 8 days
[1]; [4]
  % TGI: 63%
  % poten TGI: 12%
  Growth delay: 8 days
[1]; [5]
  % TGI: 68%
  % poten TGI: 23%
  Growth delay: 8.5 days
[1]; [6]
  % TGI: 76%
  % TTP: 17%
  % poten TGI: 43%
  Growth delay: 12 days
[1]; [7]
  % TGI: 81%
  % TTP: 17%
  % poten TGI: 55%
  Growth delay: 12 days
[1]; [8]
  % TGI: 90%
  % TTP: 50%
  % poten TGI: 75%
  Growth delay: 20 days
